Results from US12391641B2, “Prostaglandin EP4 receptor antagonist compounds” (NXERA PHARMA UK LIMITED, priority 2019, dated 2025).

Molecular target: T1, Human prostaglandin E2 receptor 4 (EP4) (Homo sapiens, UniProt P35408)
T1 construct: expressed in transfected cells; host or cells: HEK293 cells transduced with EP4 BacMam virus
Assay: cAMP Gs Functional Assay (HTRF cAMP dynamic-2), antagonism of PGE2
Format: cell-based
Conditions: HEK293 cells transfected with EP4 BacMam virus; PGE2 challenge at EC80 (7 nM); pIC50 converted to functional pKb with a modified Cheng Prussoff equation; read-out: Human EP4 fpKb (converted)
Summary of the method: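 HEK293 cells transiently expressing human EP4 via BacMam (36 h), preincubated with compound 30 min at 37 °C in DMEM + 0.5 mM IBMX, 5000 cells/well, then challenged with EC80 PGE2 (7 nM). cAMP read by HTRF; pIC50 converted to pKb by modified Cheng-Prusoff using agonist EC50 and challenge concentration.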

T1 sequence (P35408 whole entry): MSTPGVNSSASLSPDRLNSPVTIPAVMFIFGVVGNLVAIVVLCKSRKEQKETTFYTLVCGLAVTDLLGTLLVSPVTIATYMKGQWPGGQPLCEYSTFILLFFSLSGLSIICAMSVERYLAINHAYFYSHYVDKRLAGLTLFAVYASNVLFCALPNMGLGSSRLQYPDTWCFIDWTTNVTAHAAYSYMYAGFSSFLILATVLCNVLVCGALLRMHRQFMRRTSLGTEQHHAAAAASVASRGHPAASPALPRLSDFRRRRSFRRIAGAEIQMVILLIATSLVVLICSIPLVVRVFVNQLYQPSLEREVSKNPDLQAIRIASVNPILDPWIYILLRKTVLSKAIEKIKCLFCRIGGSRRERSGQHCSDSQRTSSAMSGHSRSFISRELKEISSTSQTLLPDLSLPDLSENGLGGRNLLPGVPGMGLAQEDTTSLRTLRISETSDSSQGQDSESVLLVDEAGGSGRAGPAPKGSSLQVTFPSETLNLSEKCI

SMILES	Ki
CC(C)[C@@H](OCc1ccc(Cl)c(F)c1)C(=O)NC1(c2ccc(C(=O)O)cc2)CC1 [Example 79]	2.45 nM
CC(C)[C@H](OCc1ccc(C(F)(F)F)cc1)C(=O)N[C@@H](C)c1ccc(C(=O)O)cc1 [Example 16, 4-((S)-1-((S)-3-methyl-2-((4-(trifluoromethyl)benzyl)oxy)butanamido)ethyl)benzoic acid]	178 nM
CC(C)[C@@H](OCc1ccc(C(F)(F)F)cc1)C(=O)NC1(c2ccc(C(=O)NS(C)(=O)=O)cc2)CC1 [Example 63, (R)-4-(1-(3-methyl-2-((4-(trifluoromethyl)benzyl)oxy)butanamido)cyclopropyl)-N-(methylsulfonyl)benzamide]	25.7 nM
CC(C)[C@@H](OCc1ccc(F)c(OC(F)F)c1)C(=O)NC1(c2ccc(C(=O)O)cc2)CC1 [Example 57, (R)-4-(1-(2-((3-(difluoromethoxy)-4-fluorobenzyl)oxy)-3-methylbutanamido)cyclopropyl)benzoic acid]	0.372 nM
O=C(O)c1ccc(C2(NC(=O)C(OCc3cccc(Cl)c3)C3CCC3)CC2)cc1 (centres unmarked) [Example 98, 4-(1-(2-((3-chlorobenzyl)oxy)-2-cyclobutylacetamido)cyclopropyl)benzoic acid]	1.48 nM
CC(C)[C@@H](OCc1cc(OC(F)F)ccn1)C(=O)N[C@@H](C)c1ccc(C(=O)O)cc1 [Example 77, 4-((S)-1-((R)-2-((4-(difluoromethoxy)pyridin-2-yl)methoxy)-3-methylbutanamido)ethyl)benzoic acid]	27.5 nM

More lines, now with the values ahead:

Ki	SMILES
> 12900 nM	CC(C)[C@@H](OCc1ccc(O)cc1)C(=O)N[C@@H](C)c1ccc(C(=O)O)cc1 [Example 41, 4-((S)-1-((R)-2-((4-hydroxybenzyl)oxy)-3-methylbutanamido)ethyl)benzoic acid]
4.17 nM	CC(C)[C@@H](OCc1ccc(F)cc1)C(=O)N[C@@H](C)c1ccc(C(=O)O)cc1 [Example 5, 4-((S)-1-((R)-2-((4-fluorobenzyl)oxy)-3-methylbutanamido)ethyl)benzoic acid]
2.34 nM	CC(C)[C@@H](OCc1ccc(C(F)F)cc1)C(=O)N[C@@H](C)c1ccc(C(=O)O)cc1 [Example 13, 4-((S)-1-((R)-2-((4-(difluoromethyl)benzyl)oxy)-3-methylbutanamido)ethyl)benzoic acid]
141 nM	CC(C)C(OCc1cccc(C2COC2)c1)C(=O)N[C@@H](C)c1ccc(C(=O)O)cc1 (single isomer, unassigned) [Example 48]
1.91 nM	COCc1cccc(CO[C@@H](C(=O)NC2(c3ccc(C(=O)O)cc3)CC2)C(C)C)c1 [Example 60, (R)-4-(1-(2-((3-(methoxymethyl)benzyl)oxy)-3-methylbutanamido)cyclopropyl)benzoic acid]
0.813 nM	CC(C)[C@@H](OCc1cccc(Cl)c1)C(=O)N[C@@H](C)c1ccc(C(=O)O)cc1 [Example 12, 4-((S)-1-((R)-2-((3-chlorobenzyl)oxy)-3-methylbutanamido)ethyl)benzoic acid]
1.66 nM	COCc1cccc(CO[C@@H](C(=O)N[C@@H](C)c2ccc(C(=O)O)cc2)C(C)C)c1 [Example 40, 4-((S)-1-((R)-2-((3-(methoxymethyl)benzyl)oxy)-3-methylbutanamido)ethyl)benzoic acid]
2.29 nM	CC(C)C(OCc1cccc(C2COC2)c1)C(=O)N[C@@H](C)c1ccc(C(=O)O)cc1 (single isomer, unassigned) [Example 49]
